From publication PMC10687071 (The Journal of Biological Chemistry, 2023)
Numbering of substitutions follows the chain as printed.

Legend:
[1] = tested on: EAG1 channels; settings: HEK293, whole-cell configuration; read-out: IC50 for EAG1 currents recorded from HEK293 in the whole-cell configuration; cited from earlier work
[2] = target: T1, Y71R mutant EAG1 channels (Mus musculus, UniProt Q60603, Y71R); test: TEVC recording, imipramine inhibition, Y71R mutant; type: cell-based; settings: Y71R mutant EAG1 channel, +50 mV
T1 construct: expressed in transfected cells; host or cells: Xenopus laevis oocytes injected with cRNA
T1 sequence (Q60603 1-989 Y71R): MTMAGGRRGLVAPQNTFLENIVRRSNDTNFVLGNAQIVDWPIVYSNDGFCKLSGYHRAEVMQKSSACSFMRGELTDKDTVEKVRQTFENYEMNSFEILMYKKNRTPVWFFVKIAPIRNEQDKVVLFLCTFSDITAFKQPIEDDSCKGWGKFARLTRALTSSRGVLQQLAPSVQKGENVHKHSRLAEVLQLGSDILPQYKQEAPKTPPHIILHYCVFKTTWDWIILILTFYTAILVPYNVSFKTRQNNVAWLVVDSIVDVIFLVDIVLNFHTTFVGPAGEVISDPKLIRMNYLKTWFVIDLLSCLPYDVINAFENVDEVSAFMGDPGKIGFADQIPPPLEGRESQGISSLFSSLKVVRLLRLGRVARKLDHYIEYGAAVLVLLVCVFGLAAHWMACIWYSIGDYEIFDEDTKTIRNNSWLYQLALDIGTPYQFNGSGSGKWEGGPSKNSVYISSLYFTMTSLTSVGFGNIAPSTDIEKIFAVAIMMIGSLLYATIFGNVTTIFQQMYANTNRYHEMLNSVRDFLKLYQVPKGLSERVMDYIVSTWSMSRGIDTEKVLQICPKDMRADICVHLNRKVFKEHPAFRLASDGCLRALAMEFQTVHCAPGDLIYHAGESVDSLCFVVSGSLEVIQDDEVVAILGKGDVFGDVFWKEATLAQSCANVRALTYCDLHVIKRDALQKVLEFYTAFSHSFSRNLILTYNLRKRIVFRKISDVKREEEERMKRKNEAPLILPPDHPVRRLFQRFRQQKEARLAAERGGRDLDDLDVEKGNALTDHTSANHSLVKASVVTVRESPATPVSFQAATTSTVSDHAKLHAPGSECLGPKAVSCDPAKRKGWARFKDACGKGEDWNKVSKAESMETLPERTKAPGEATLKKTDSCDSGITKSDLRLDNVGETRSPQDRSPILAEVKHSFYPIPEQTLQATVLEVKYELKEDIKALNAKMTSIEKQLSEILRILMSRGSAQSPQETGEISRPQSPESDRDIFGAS
Source text: (§1) The cDNA encoding wild-type (WT) mouse EAG1 channels in pGH19 vector was kindly provided by G. Robertson (University of Wisconsin-Madison, Madison, WI). The mutant ΔPAS EAG1 channel in pGH19 with the deletion of the PAS domain residues 2 to 130 was generated by Bio Basic Inc and verified by DNA sequencing (Genewiz). Mutant EAG1 channels with single amino acid substitutions were generated by Genewiz and verified by DNA sequencing. cRNA was transcribed using the T7 mMessage mMachine kit (Thermo Fisher Scientific). Defolliculated Xenopus laevis oocytes were purchased from Ecocyte Bioscience or Xenopus1 and injected with the cRNA using a Nanoinject II oocyte injector (Drummond).
(§2) For EAG1 current recordings, oocytes were placed into a handmade chamber containing a bath solution for the current recording. The currents were recorded using a TEVC technique with OC-725C amplifier (Warner Instruments) and pClamp11 software (Molecular Devices). The signals were digitized using Digidata 1550 (Molecular Devices). Patch pipettes were pulled from borosilicate glass and had resistances of 0.7 to 1.5 MΩ. The recording (bath) solution contained 96 mM NaCl, 4 mM KCl, 0.1 mM CaCl2, 1.8 mM MgCl2, and 5 mM HEPES, pH 7.5. The pipette solution contained 3 M KCl. […]

[3] = target: T2, Y71V mutant EAG1 channels (Mus musculus, UniProt Q60603, Y71V); test: TEVC recording, imipramine inhibition, Y71V mutant; type: cell-based; settings: Y71V mutant EAG1 channel, +50 mV
T2 construct: expressed in transfected cells; host or cells: Xenopus laevis oocytes injected with cRNA
T2 sequence (Q60603 1-989 Y71V): T1 sequence (Q60603 1-989 Y71R) with R71V
Source text: as §1, §2

- IC50 [2]: 43.4 ± 7.5 µM
- IC50 [3]: 31.3 ± 1.8 µM
SMILES: CN(C)CCCN1c2ccccc2CCc2ccccc21 [imipramine]
- IC50 [1]: ~2 µM
